Experiment [1] deals with T1, BIR3 domain of XIAP (Homo sapiens, UniProt P98170).
T1 construct: Recombinant XIAP-BIR3 (residues 238-358); GST (N, cleaved yes); made in house; host or cells: E. coli
In words: Fluorescence displacement assay: AVPC-badan displaced from BIR3 by test tetrapeptide (typical assay, Tables 1 and 2). Type of experiment: binding, mammalian. As to conditions: for Intensity (470 nm): emission intensity of AVPC-badan with BIR3 and test tetrapeptide, excitation 387 nm, lower = more dye displaced; for Fraction free: fraction of AVPC-badan free (displaced from BIR3), from intensity at 470 nm; for Krelative: relative equilibrium constant for displacement of AVP-dye, larger = greater affinity for BIR3; for K: binding (equilibrium) constant for displacement of AVP-dye, position-4 library, 5 μM dye and protein, larger = greater affinity. The text has this:
The ability to quickly assay small molecules for their effectiveness in disrupting protein-protein interactions is critical to the development of viable drug candidates. One aspect of the present invention comprises an assay to test the binding affinity of a library of tetrapeptide molecules for the BIR3 domain of an inhibitor of apoptosis protein (LAP), particularly the mammalian XIAP. The assay is based on a detectable label, preferably a fluorogenic dye molecule. In preferred embodiments, the fluorophore is attached to a tripeptide, AVP, whose sequence matches the N-terminal three residues of Smac. The general structure of this molecule, therefore, is AVP[X], wherein X is the fluorophore. The molecule is referred to herein as an “AVP-dye”. The AVP-dye packs into the groove of the BIR3, causing a large shift in emission maximum and intensity when the environment of the dye changes from water to the hydrophobic pocket of the protein. If a molecule (e.g. the native Smac protein or a tetrapeptide mimic) displaces the dye, then emission will shift back to the spectrum observed in water. Since the emission intensity is related to the binding of the tetrapeptide, the intensity can be used to estimate the equilibrium constant, K, for displacement of the AVP-dye by the tetrapeptide. The larger the equilibrium constant, the greater affinity the tetrapeptide has for the BIR3.
The aforementioned AVP-dye is used in an assay of test compounds that may, like the Smac tetrapeptide AVPI, bind to the BIR3 domain of XIAP, thereby relieving XIAP-mediated suppression of apoptosis. This is a high-throughput, cell-free assay, that is assembled as follows. A protein comprising the BIR3 domain of an IAP is placed in an assay medium comprising a suitable buffer, as described above. Preferably, this is a recombinant protein comprising the BIR3 domain, but a full IAP protein also may be used. An aliquot of the AVP-dye is added to the reaction mixture, in the presence of the test compound. Controls comprise the BIR3 and the dye in the absence of the test compound and, optionally, BIR3 and the dye in the presence of the naturally occurring tetrapeptide, AVPI. […] Alternatively, a emission spectrum is measured at the selected excitation wavelength. In one type of measurement, the test compound is added and an emission spectrum is measured by scanning from, e.g., 460-480 nm. In another type of measurement, the emission intensity at a particular wavelength, e.g., 470 nm, is measured. […] Thus, the binding affinity of the test compound may be calculated as a function of its ability to displace the dye from the BIR3 domain, according to the following calculation: [formula]
Stock solution of badan, BIR3, and buffer were mixed: 2.5 ml of badan, 1.75 ml BIR3, and 15.25 ml of buffer were mixed in a glass vial which had been chilled to 4° C. Added 390 μL of the stock solution to 50 wells in the pre-chilled 96 well plate (wells A1-E2).
Stock solution of badan and buffer were mixed: 150 μL badan and 1020 μL of buffer were mixed in a small glass vial (also chilled) and added to 3 wells on the plate in 390 μL aliquots (F1-F3).
The 96 well plate was stored over ice in an insulated bucket while the emission spectra of the samples were taken. Fifty μL of the appropriate test solution (or water, for the control experiments) was added with a micropipet, the solution mixed with a Pasteur pipet before adding the sample to the fluorescence cuvette. While one sample was being scanned, the cuvette from the previous scan was washed with EtOH and then next sample was prepared.

Experiment [2] deals with T2, BIR3 domain of XIAP (recombinant XIAP-BIR3, residues 238-358) (Homo sapiens, UniProt P98170).
T2 construct: Recombinant XIAP-BIR3 (residues 238-358); GST (N, cleaved yes); made in house; host or cells: E. coli
T2 sequence (P98170 238-358): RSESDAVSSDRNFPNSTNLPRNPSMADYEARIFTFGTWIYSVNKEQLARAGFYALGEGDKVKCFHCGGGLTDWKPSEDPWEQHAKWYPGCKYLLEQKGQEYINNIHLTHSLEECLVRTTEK
As to the kind of experiment: Fluorescence-based competition assay of tetrapeptide libraries (Example 1). Format: binding, mammalian. The text has this:
Expression and Purification of BIR3. […] The soluble fraction of the GST-BIR3 in the E. coli lysate was purified over a glutathione sepharose column, and further purified by anion exchange chromatography (Mono-Q, Amersham Biosciences). The fusion protein was cleaved by thrombin, and the GST portion was removed by the glutathione sepharose column. The BIR3 protein was further purified over a gel filtration column (Superdex 30, Amersham Biosciences).
Fluorescence Experiments. Luminescence spectra were recorded using a Photon Technologies, Inc. fluorometer with a Xe arc lamp and a PMT detector. […] The buffer used in all of the fluorescence experiments was 50 mM potassium phosphate, 100 mM NaCl, 2 mM 1,4-dithio-DL-threitol (DTT), pH 7.
Assay of Tetrapeptide Libraries. The samples were prepared in a 96 well plate lined with glass tubes, to prevent adsorption of the dye to plastic. The plate was stored on ice in the dark between measurements. […] 390 μL of this stock solution were added to 50 wells of the 96 well plate. 50 μL of the test tetrapeptide solutions were added and mixed immediately prior to taking the emission spectra. The final solutions were 5 μM in both badan and BIR3, and approximately 20-30 μM in the tetrapeptide solutions. […] 50 μL of water was added to these wells, again as controls, to determine the intensity of the unbound dye.
The binding of various tetrapeptide mimics to the BIR3 domain of XIAP was determined using a fluorescence-based competition assay. The assay is based on an environment-sensitive fluorogenic dye molecule, badan. Badan is a dye whose sensitivity to environmental changes has previously been used to probe protein binding interactions. […] As the dye is displaced from the binding pocket by the test molecule, the emission shifts back towards the aquated spectrum.

Experiment [3] deals with T3, Recombinant XIAP-BIR3 (residues 238-358) (UniProt P98170 238-358).
T3 construct: also called BIR3 domain of XIAP; BIR3 protein
T3 sequence (P98170 238-358 limits assumed): as the sequence (P98170 238-358) above
In words: fluorescence competition, displacement of AVPC-badan from BIR3.
Protocol: The samples were prepared in a 96 well plate lined with glass tubes, to prevent adsorption of the dye to plastic. The plate was stored on ice in the dark between measurements. A small volume cuvette, with a path length of 2 mm, was used to collect the emission spectra. […] 390 μL of this stock solution were added to 50 wells of the 96 well plate. 50 μL of the test tetrapeptide solutions were added and mixed immediately prior to taking the emission spectra. […] 50 μL of water was added to these wells, again as controls, to determine the intensity of the unbound dye.
The binding of various tetrapeptide mimics to the BIR3 domain of XIAP was determined using a fluorescence-based competition assay. […] As the dye is displaced from the binding pocket by the test molecule, the emission shifts back towards the aquated spectrum.

Non-standard residues stand in square brackets, D forms with d. Residues, ends and D or L forms follow the SMILES beside them. ξ: configuration not given here. ξAbu = CCC(N)C(=O)O

T1 sequence (P98170 238-358): as above

As usually defined, the Kd is the constant that tells how readily two partners part at equilibrium. In the case of `CC[C@H](C)[C@H](NC(=O)[C@@H]1CCCN1C(=O)[C@H](Cc1c[nH]cn1)NC(=O)[C@H](C)N)C(N)=O` [AHPI] (H-AHPI-NH2; N-terminus and C-terminus assumed), in experiment [1], the “Intensity (470 nm)” value was 41450 and the Fraction free is recorded as 0.8543. In addition, the Kd in experiment [2] was found to be 0.33 µM.
On to `CC[C@H](C)[C@H](NC(=O)[C@@H]1CCCN1C(=O)[C@@H](NC(=O)[C@H](C)N)[C@@H](C)CC)C(N)=O` [AIPI] (H-AIPI-NH2; N-terminus and C-terminus assumed), for which, in experiment [1], the “Intensity (470 nm)” value was 44902, the Fraction free is listed as 0.8375 and the Krelative was 2.6613.
The like results for `CC[C@H](C)[C@H](NC(=O)[C@@H]1CCCN1C(=O)[C@H](CC(C)C)NC(=O)[C@H](C)N)C(N)=O` [ALPI] (H-ALPI-NH2; N-terminus and C-terminus assumed) were, in that order, 38650, 0.8679 and 3.5812.
As for `CC[C@H](C)[C@H](NC(=O)[C@@H]1CCCN1C(=O)[C@H](CCCNC(=N)N)NC(=O)[C@H](C)N)C(N)=O` [ARPI], in experiment [1], the “Intensity (470 nm)” value stood at 29455 and the Fraction free is given as 0.9125. In addition, the dissociation constant (Kd) in experiment [2] turned out to be 0.18 µM.
In experiment [1], `CC(C)[C@H](NC(=O)[C@H](C)N)C(=O)N1CCC[C@H]1C(=O)N[C@@H](C)C(N)=O` [AVPA] (H-AVPA-NH2; N-terminus and C-terminus assumed) gave a K of 0.05518. In addition, in experiment [2], the Kd is 14 µM.
The like results for `CC(C)[C@H](NC(=O)[C@H](C)N)C(=O)N1CCC[C@H]1C(=O)N[C@@H](CS)C(N)=O` [AVPC, Ala-Val-Pro-Cys-NH2] were, in that order, 0.1034 and 1.4 µM.
Regarding `CC(C)[C@H](NC(=O)[C@H](C)N)C(=O)N1CCC[C@H]1C(=O)N[C@@H](CC(=O)O)C(N)=O` [AVPD] (H-AVPD-NH2; N-terminus and C-terminus assumed), in experiment [1], the K came to 0.1799. Further, the Kd in experiment [2] is 7.3 µM.
The like results for `CC(C)[C@H](NC(=O)[C@H](C)N)C(=O)N1CCC[C@H]1C(=O)N[C@@H](CCC(=O)O)C(N)=O` [AVPE] (H-AVPE-NH2; N-terminus and C-terminus assumed) were, in that order, 0.03709 and 93 µM.
In experiment [1], `CC(C)[C@H](NC(=O)[C@H](C)N)C(=O)N1CCC[C@H]1C(=O)NCC(N)=O` [AVPG] (H-AVPG-NH2; N-terminus and C-terminus assumed) yielded a K of 0.08948. In experiment [2], the Kd amounted to 4.7 µM.
Taken in the same sequence, the figures for `CC(C)[C@H](NC(=O)[C@H](C)N)C(=O)N1CCC[C@H]1C(=O)N[C@@H](Cc1c[nH]cn1)C(N)=O` [AVPH] (H-AVPH-NH2; N-terminus and C-terminus assumed) were 0.07521 and 7.3 µM.
On to `CC(C)[C@H](NC(=O)[C@H](C)N)C(=O)N1CCC[C@H]1C(=O)N[C@@H](CCCCN)C(N)=O` [AVPK] (H-AVPK-NH2; N-terminus and C-terminus assumed), for which the K in experiment [1] was 0.00702. The dissociation constant Kd in experiment [2] was found to be 28 µM.
The molecule `CC(C)C[C@H](NC(=O)[C@@H]1CCCN1C(=O)[C@@H](NC(=O)[C@H](C)N)C(C)C)C(N)=O` [AVPL] (H-AVPL-NH2; N-terminus and C-terminus assumed) gave a K in experiment [1] of 0.3423. Also, the equilibrium dissociation constant (Kd) in experiment [2] came to 0.49 µM.
Taken in the same sequence, the figures for `CSCC[C@H](NC(=O)[C@@H]1CCCN1C(=O)[C@@H](NC(=O)[C@H](C)N)C(C)C)C(N)=O` [AVPM] (H-AVPM-NH2; N-terminus and C-terminus assumed) were 0.05288 and 2.3 µM.
Taken in the same sequence, the figures for `CC(C)[C@H](NC(=O)[C@H](C)N)C(=O)N1CCC[C@H]1C(=O)N1CCC[C@H]1C(N)=O` [AVPP] (H-AVPP-NH2; N-terminus and C-terminus assumed) were 0.01069 and 5.7 µM.
The like results for `CC(C)[C@H](NC(=O)[C@H](C)N)C(=O)N1CCC[C@H]1C(=O)N[C@@H](CO)C(N)=O` [AVPS] (H-AVPS-NH2; N-terminus and C-terminus assumed) were, in that order, 0.01304 and 4.4 µM.
In turn, `CC(C)[C@H](NC(=O)[C@H](C)N)C(=O)N1CCC[C@H]1C(=O)N[C@H](C(N)=O)[C@@H](C)O` [AVPT] (H-AVPT-NH2; N-terminus and C-terminus assumed) registered a K in experiment [1] of 0.143. The Kd in experiment [2] stood at 2.1 µM.
The like results for `CC(C)[C@H](NC(=O)[C@@H]1CCCN1C(=O)[C@@H](NC(=O)[C@H](C)N)C(C)C)C(N)=O` [AVPV] (H-AVPV-NH2; N-terminus and C-terminus assumed) were, in that order, 0.1011 and 1.5 µM.
For `CC(C)[C@H](NC(=O)[C@H](C)N)C(=O)N1CCC[C@H]1C(=O)N[C@@H](Cc1c[nH]c2ccccc12)C(N)=O` [AVPW] (H-AVPW-NH2; N-terminus and C-terminus assumed), in experiment [1], the K is recorded as 1.0817, the “Intensity (470 nm)” value is listed as 23435 and the Fraction free is 0.9418. The Kd in experiment [2] came out at 0.11 µM.
The like results for `CC(C)[C@H](NC(=O)[C@H](C)N)C(=O)N1CCC[C@H]1C(=O)N[C@@H](Cc1ccc(O)cc1)C(N)=O` [AVPY] (H-AVPY-NH2; N-terminus and C-terminus assumed) were, in that order, 1.1692, 39093, 0.8657 and 0.3 µM.
`CCC(N)C(=O)N[C@H](C(=O)N1CCC[C@H]1C(=O)N[C@H](C(N)=O)[C@@H](C)CC)C(C)C` (stereo partly drawn) [AbuVPI] (H-[ξAbu]VPI-NH2; N-terminus and C-terminus assumed): in experiment [1], the “Intensity (470 nm)” value is recorded as 34770 and the Fraction free was found to be 0.8867.
Consider `CC[C@H](C)[C@H](NC(=O)[C@@H]1CCCN1C(=O)[C@@H](NC(=O)CN)C(C)C)C(N)=O` [GVPI] (H-GVPI-NH2; N-terminus and C-terminus assumed), for which the equilibrium dissociation constant (Kd) in experiment [2] turned out to be 9 µM.
The same measure, in the same setting: in the case of `CC[C@H](C)[C@H](NC(=O)[C@@H]1CCCN1C(=O)[C@@H](NC(=O)[C@@H](N)CO)C(C)C)C(N)=O` [SVPI] it was 27 µM.
On to ALPI (Synthetic tetrapeptide), for which the Kd in experiment [3] is 0.29 µM.

Values taken from patent publication US20050176649A1, “Iap binding peptides and assays for identifying compounds that bind iap” (priority 2001, published 2005).
